# PubChem BioAssay AID1645865 (Buhrlage Lab, Dana-Farber Cancer Institute and Novartis …, 2021)
# Activity calls are given as the source filed them.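 The calls were made as follows: active = maximal inhibition of the USP30 enzyme reaching 30% or more across the dose series; inactive = the rest.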
# Target: Ubiquitin carboxyl-terminal hydrolase 30 (Homo sapiens) (UniProt Q70CQ3)
# Test: ubiquitin-specific protease 30 DUB inhibitors, concentration-effect, biochemical, validation of primary actives (AID 1645865)
# Details: purified USP30, Ub-rhodamine cleavage, fluorescence, 2 h
# Ubiquitin carboxyl-terminal hydrolase 30 (Homo sapiens), sequence (Q70CQ3 whole entry, looked up): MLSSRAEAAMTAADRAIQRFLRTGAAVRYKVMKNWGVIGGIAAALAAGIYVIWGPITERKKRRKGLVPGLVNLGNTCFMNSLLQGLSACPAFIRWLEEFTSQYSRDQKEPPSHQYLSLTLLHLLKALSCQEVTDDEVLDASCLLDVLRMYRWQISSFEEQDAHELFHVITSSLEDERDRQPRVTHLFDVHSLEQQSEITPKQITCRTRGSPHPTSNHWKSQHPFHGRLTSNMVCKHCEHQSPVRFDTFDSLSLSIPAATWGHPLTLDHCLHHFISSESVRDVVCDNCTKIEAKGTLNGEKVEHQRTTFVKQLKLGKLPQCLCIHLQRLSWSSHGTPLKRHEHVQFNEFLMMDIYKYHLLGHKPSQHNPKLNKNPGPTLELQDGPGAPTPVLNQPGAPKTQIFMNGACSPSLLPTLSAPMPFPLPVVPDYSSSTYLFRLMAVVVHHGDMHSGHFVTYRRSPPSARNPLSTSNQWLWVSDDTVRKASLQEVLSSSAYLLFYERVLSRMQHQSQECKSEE
row,SMILES,IC50
1,COc1ccc(C2CC(c3ccccc3)N(C(=O)C3CC3)c3ncnn32)cc1 (centres undefined),> 50 µM (inactive)
2,Cc1nnc(Sc2cc(C(=O)NCCN3CCCC3)c3ccccc3n2)s1,> 50 µM (inactive)
3,Cc1cccc(NC(=O)c2nc(N3CCSCC3)c3cnn(C)c3n2)c1,> 50 µM (inactive)
4,O=C(c1ccnn1-c1ccc2ccc(-c3ccncc3)cn12)N1CCCC1,> 50 µM (inactive)
5,CC(C)CC1NC(=O)C2CCCN2C1=O (centres undefined),> 50 µM (inactive)
6,CCOC(=O)c1cc2c(ccn2C)n1CC(=O)N1CCC(C)CC1,> 50 µM (inactive)
7,CCCc1c(C(=O)O)c(O[C@H]2O[C@H](C)[C@@H](OC)[C@H](OC)[C@@H]2OC)cc2cc3c(c(O)c12)C(=O)c1c(O)cc(O[C@@H]2O[C@@H](C)[C@H](O[C@H]4O[C@H](C)[C@@H](OC)[C@H](OC)[C@@H]4O)[C@@H](OC)[C@H]2O)cc1C3=O,> 50 µM (inactive)
8,CSc1ncc(C(=O)NC(C)c2ccccc2)c(-c2ccccc2)n1 (centres undefined),21.9 µM
9,Cc1cc(-n2c(C)cc(-c3csc(N)n3)c2C)no1,> 50 µM (inactive)
10,COc1ccc(N2C(=O)[C@@H]3[C@H]4c5ccccc5C=CN4C(C(=O)Nc4ccc5c(c4)OCO5)[C@@H]3C2=O)cc1 (some centres undefined),> 50 µM (inactive)
11,O=C(NCCc1ccco1)c1ccc(N2CCOc3ccccc32)s1,27.4 µM
12,CCN1CCCC1CN(Cc1cc2cc(OC)ccc2[nH]c1=O)C(=O)NCc1ccccc1 (centres undefined),> 50 µM (inactive)
13,COc1cccc(CNC(=O)c2ccc(CSc3nc4ccncc4n3Cc3ccccc3F)cc2)c1,29.2 µM
14,CC(C)(C)c1cc(C[C@@H]2C[C@H](NC(=O)N3CCOCC3)C2(C)C)no1,22.2 µM
15,CC(C)NS(=O)(=O)c1cccc2c(NC(=O)C(Cc3ccccc3)NC(=O)c3ccccc3)cccc12 (centres undefined),< 0.05 µM
16,COc1ccc2nc(Nc3ncc4c(n3)CCCC4=O)nc(C)c2c1,> 50 µM (inactive)
17,O=C(NC1CC1)c1ccnn1-c1ccc2ccc(-c3ccncc3)cn12,> 50 µM (inactive)
18,O=C(Nc1cccc(C(F)(F)F)c1)N1CCCn2c(nc3ccccc32)C1,19.7 µM
19,O=C(NCc1ccc(-c2nc3cnccc3o2)cc1)c1cc2ccccc2o1,2.99 µM
20,CC1CCCCN1c1nc(F)c2c(c1F)S(=O)(=O)CCN2Cc1ccccc1 (centres undefined),> 50 µM (inactive)

# Now from value to compound:
row,IC50,SMILES
1,31.9 µM,O=C(NCc1ccccc1)Nc1cccc2ccccc12
2,0.221 µM,COc1cc2c(cc1NC(=O)c1ccc(-n3cnnn3)cc1)oc1ccccc12
3,> 50 µM (inactive),CC1CC(=O)Nc2ccccc2N1S(=O)(=O)c1ccc(C#N)cc1 (centres undefined)
4,> 50 µM (inactive),O=C(CN1C(=O)COc2ccc(Cl)cc21)Nc1cccc2ncccc12
5,> 50 µM (inactive),O=C1C/C(=C\c2cccc(Cl)c2)Cc2ccccc21
6,2.9 µM,CC(=O)Nc1cc(-c2cccc(O)c2)cn2c(-c3cnn(C)c3)cnc12
7,> 50 µM (inactive),N#Cc1ccc(Cc2ncc(C(F)(F)F)cc2Cl)s1
8,> 50 µM (inactive),O=C(c1ccsc1)N1CCC2(C1)Nc1cccnc1NC2=NC1CCCC1 (centres undefined)
9,> 50 µM (inactive),N#Cc1ccc(Cl)cc1NC(=O)COc1cccnc1[N+](=O)[O-]
10,39.6 µM,Cc1ccc(C(=O)NCC(=O)Nc2nc3ccccc3[nH]2)c(C)c1
11,> 50 µM (inactive),CNc1nc2c(c(=O)n1C)CN(C(=O)Nc1cccc3ccccc13)CC2
12,> 50 µM (inactive),CN1C(=O)c2cc(NC(=O)c3ccccc3Cl)ccc2Oc2ccccc21
13,1.97 µM,O=C(NCc1ccc2c(c1)OCO2)c1[nH]nc2c1COc1ccccc1-2
14,0.887 µM,COc1ccccc1-c1nc2c3c(C)c(C)n(-c4ccc(Br)cn4)c3ncn2n1
15,> 50 µM (inactive),Cc1ccc(C)c(CSC2=NCCN2C(=O)c2ccco2)c1
16,> 50 µM (inactive),O=c1ccc(-c2noc(Cc3c(F)cccc3Cl)n2)c[nH]1
17,> 50 µM (inactive),O=C(Nc1ccccc1)c1cn(-c2cc(N3CCCC3)ncn2)cn1
18,> 50 µM (inactive),CCOc1ccc(NC(=O)COc2cccc3c2CCN(CC)C3=O)cc1
19,14.4 µM,O=C(Cn1c(-c2ccccc2)ncc(C(=O)NC2CC2)c1=O)Nc1ccccc1
